Reference: PubChem BioAssay AID623910 (NMMLSC, 2012)

Tested on: mouse and human plasma, RED dialysis, LC/MS/MS, 4 h
Experiment: fraction of compound bound to plasma proteins – biochemical, mouse and human plasma, ADME assay for GPR30 and estrogen receptor ligands, late-stage follow-up (AID 623910)

plasma protein binding (at 1 µM): 99.8%
plasma protein binding (human plasma binding, at 10 µM): 99.8%
plasma protein binding (mouse plasma binding, at 1 µM): 99.8%
plasma protein binding (mouse plasma binding, at 10 µM): 99.5%
SMILES: CC(=O)c1ccc2c(c1)[C@@H]1C=CC[C@@H]1[C@H](c1cc3c(cc1Br)OCO3)N2
